Measurements: patent US10940139B2, “Compounds that interact with the Ras superfamily for the treatment of cancers, inflammatory diseases, rasopathies, and fibrotic disease” (Shy Therapeutics LLC, priority 2017, dated 2021)

Assays:
Test in all cases: Ras GTP binding domain inhibition assay (labeled GTP)
KRas G12D mutant protein = KRas G12D mutant protein (Homo sapiens (Human), UniProt P01116, G12D); conditions: 20 μM compound; KRas G12D; read-out: % Inhibition at 20 μM of K-Ras mutant and wild-type protein, KRas G12D
Chain of KRas G12D mutant protein (P01116-2 other isoform, or with tags, fused parts or gaps G12D): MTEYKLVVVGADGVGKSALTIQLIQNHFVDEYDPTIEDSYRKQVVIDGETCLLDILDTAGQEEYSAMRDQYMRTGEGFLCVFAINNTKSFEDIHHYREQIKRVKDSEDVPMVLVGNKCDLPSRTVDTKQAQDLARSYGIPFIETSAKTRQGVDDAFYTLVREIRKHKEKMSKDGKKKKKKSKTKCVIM

KRas wild type = KRas wild type (Homo sapiens (Human), UniProt P01116); conditions: 20 μM compound; KRas wild type; read-out: % Inhibition at 20 μM of K-Ras mutant and wild-type protein, KRas wild type
Chain of KRas wild type (P01116-2 other isoform, or with tags, fused parts or gaps): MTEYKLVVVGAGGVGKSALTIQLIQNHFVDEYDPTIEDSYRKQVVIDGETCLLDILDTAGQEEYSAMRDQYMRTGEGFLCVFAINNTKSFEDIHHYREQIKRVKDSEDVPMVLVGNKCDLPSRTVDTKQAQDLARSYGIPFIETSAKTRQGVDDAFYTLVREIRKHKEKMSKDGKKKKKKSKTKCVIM
Outline: (§1)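 Inhibition of labeled GTP binding is measured on immobilized His-KRas protein in Tris buffer pH 7.5 with 1 mM MgCl2 and 1 mM DTT.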

KRas G12C mutant = KRas G12C mutant (Homo sapiens (Human), UniProt P01116, G12C); conditions: 20 μM compound; KRas G12C; read-out: % Inhibition at 20 μM of K-Ras mutant and wild-type protein, KRas G12C
Chain of KRas G12C mutant (P01116-2 other isoform, or with tags, fused parts or gaps G12C): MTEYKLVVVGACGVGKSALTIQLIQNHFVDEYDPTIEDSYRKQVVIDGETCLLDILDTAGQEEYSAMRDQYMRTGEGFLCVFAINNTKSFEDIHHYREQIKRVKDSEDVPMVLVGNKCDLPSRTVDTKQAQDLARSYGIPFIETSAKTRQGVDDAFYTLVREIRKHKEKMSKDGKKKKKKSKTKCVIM
Outline: as §1

[1] = biological target: KRas G12D/Q61H double mutant (Homo sapiens (Human), UniProt P01116, G12D/Q61H); conditions: 20 μM compound; KRas G12D/Q61H double mutant; read-out: % Inhibition at 20 μM of K-Ras mutant and wild-type protein, KRas G12D Q61H
Chain of KRas G12D/Q61H double mutant (P01116-2 other isoform, or with tags, fused parts or gaps G12D/Q61H): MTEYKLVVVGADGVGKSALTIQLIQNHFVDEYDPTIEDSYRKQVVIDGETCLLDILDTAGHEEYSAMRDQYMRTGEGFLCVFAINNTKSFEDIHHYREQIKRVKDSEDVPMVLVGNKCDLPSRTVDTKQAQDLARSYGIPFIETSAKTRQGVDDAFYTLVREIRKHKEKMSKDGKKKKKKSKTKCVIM
Outline: as §1

[2] = biological target: KRas G12C/Q61H double mutant (Homo sapiens (Human), UniProt P01116, G12C/Q61H); conditions: 20 μM compound; KRas G12C/Q61H double mutant; read-out: % Inhibition at 20 μM of K-Ras mutant and wild-type protein, KRas G12C Q61H
Chain of KRas G12C/Q61H double mutant (P01116-2 other isoform, or with tags, fused parts or gaps G12C/Q61H): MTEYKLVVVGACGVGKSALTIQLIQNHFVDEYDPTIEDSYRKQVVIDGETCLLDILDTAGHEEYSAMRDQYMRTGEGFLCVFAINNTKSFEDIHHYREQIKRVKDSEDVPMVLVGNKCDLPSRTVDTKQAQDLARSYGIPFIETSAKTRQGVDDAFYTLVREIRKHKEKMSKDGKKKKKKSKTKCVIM
Outline: as §1

KRas Q61H mutant = KRas Q61H mutant (Homo sapiens (Human), UniProt P01116, Q61H); conditions: 20 μM compound; KRas Q61H; read-out: % Inhibition at 20 μM of K-Ras mutant and wild-type protein, KRas Q61H
Chain of KRas Q61H mutant (P01116-2 other isoform, or with tags, fused parts or gaps Q61H): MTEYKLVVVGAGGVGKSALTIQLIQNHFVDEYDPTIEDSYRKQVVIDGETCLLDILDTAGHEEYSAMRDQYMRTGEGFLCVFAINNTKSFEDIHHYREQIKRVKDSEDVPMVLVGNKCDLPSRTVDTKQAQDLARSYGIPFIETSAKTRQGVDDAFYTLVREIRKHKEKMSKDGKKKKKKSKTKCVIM
Outline: as §1

Structure (SMILES) | inhibition at 20 µM (KRas G12D mutant protein) | inhibition at 20 µM (KRas wild type) | inhibition at 20 µM (KRas G12C mutant) | inhibition at 20 µM [1] | inhibition at 20 µM [2] | inhibition at 20 µM (KRas Q61H mutant)
Cc1ccccc1-c1c(C)sc2c(O)nc(-c3nccn3C)nc12 | 25 to 50% | 25 to 50% | 1 to 25% |  |  | 
Cc1sc2c(O)nc(-c3ccccn3)nc2c1C(=O)N1CCN(c2ccccc2)CC1 [drawing 3508] |  |  |  | 25 to 50% | 51 to 75% | 51 to 75%
Oc1nc(-c2ccccn2)nc2c(C3CCCCC3)csc12 [drawing 3511] |  |  |  | 25 to 50% | 25 to 50% | 51 to 75%
Oc1nc(-c2ccccn2)nc2c(CC3CNC3)csc12 [drawing 3519] |  |  |  | 25 to 50% | 51 to 75% | 51 to 75%
COc1cnc(CNC(=O)c2csc3c(O)nc(-c4ccccn4)nc23)[nH]c1=O [drawing 3520] |  |  |  | 1 to 25% | 25 to 50% | 0%
COc1cnc(CNC(=O)c2cc3nc(-c4ccccn4)nc(O)c3s2)[nH]c1=O [drawing 3521] |  |  |  | 25 to 50% | 51 to 75% | 51 to 75%
COc1cnc(CNC(=O)c2c(C)sc3c(O)nc(-c4ccccn4)nc23)[nH]c1=O [drawing 3523] |  |  |  | 0% | 1 to 25% | 0%
COc1cnc(CNC(=O)c2sc3c(O)nc(-c4ccccn4)nc3c2C)[nH]c1=O [drawing 3524] |  |  |  | 1 to 25% | 25 to 50% | 0%
Cn1cnc(-c2nc(O)c3c(-c4ccccc4)c(-c4ccc(CNC(=O)OC(C)(C)C)cc4)sc3n2)c1 [drawing 3537] |  |  |  | 1 to 25% | 1 to 25% | 1 to 25%
Nc1nc(O)c2sc(-c3cccc(C(=O)NC4CCNC4=O)c3)cc2n1 (stereo not drawn) [drawing 3542] |  |  |  | 1 to 25% | 1 to 25% | 0%
Nc1nc(O)c2sc(-c3cccc(C(=O)N4CCC(O)C4)c3)cc2n1 (stereo not drawn) [drawing 3543] |  |  |  | 1 to 25% | 1 to 25% | 1 to 25%

Second part, the molecule after the results:

inhibition at 20 µM (KRas G12D mutant protein) | inhibition at 20 µM (KRas wild type) | inhibition at 20 µM (KRas G12C mutant) | inhibition at 20 µM [1] | inhibition at 20 µM [2] | inhibition at 20 µM (KRas Q61H mutant) | Structure (SMILES)
 |  |  | 25 to 50% | 25 to 50% | 1 to 25% | Cc1sc2c(O)nc(-c3ccccn3)nc2c1Br [drawing 3522]
 |  |  | 25 to 50% | 51 to 75% | 51 to 75% | O=C(c1csc2c(O)nc(-c3ccccn3)nc12)N1CCNC(c2ccc(Cl)cc2)C1 (stereo not drawn) [drawing 3525]
 |  |  | 1 to 25% | 1 to 25% | 1 to 25% | Cn1cnc(-c2nc(O)c3c(-c4ccccc4)c(-c4ccncc4)sc3n2)c1 [drawing 3528]
 |  |  | 1 to 25% | 1 to 25% | 1 to 25% | COCCNc1nc(-c2ccccn2)nc(-c2cccc(OCCN(C)C)c2)c1Oc1ccccc1 [drawing 3529]
 |  |  | 1 to 25% | 1 to 25% | 1 to 25% | OCC1(c2ccc(-c3nc(-c4ccccn4)nc(-c4ccc(C5(CO)CC5)cc4)c3Oc3ccccc3)cc2)CC1 [drawing 3532]
 |  |  | 1 to 25% | 1 to 25% | 1 to 25% | Cn1ccnc1-c1nc(O)c2c(-c3ccccc3)c(-c3ccccc3)sc2n1 [drawing 3536]
 |  |  | 0% | 1 to 25% | 1 to 25% | NC(=O)C1CCCN1C(=O)c1cccc(-c2cc3nc(N)nc(O)c3s2)c1 (stereo not drawn) [drawing 3544]
 |  |  | 0% | 1 to 25% | 0% | Nc1nc(O)c2sc(-c3cccc(C(=O)NCc4ncc[nH]4)c3)cc2n1 [drawing 3545]
 |  |  | 0% | 1 to 25% | 0% | Nc1nc(O)c2sc(-c3cccc(C(=O)NCc4cccc(O)n4)c3)cc2n1 [drawing 3546]
 |  |  | 51 to 75% | 76 to 100% | 51 to 75% | COC(=O)c1nc(-c2ccccn2)nc(O)c1O [drawing 3547]
 |  |  | 0% | 0% | 51 to 75% | Oc1nc(-c2ccccn2)nc2c(-c3ccccc3)c(-c3ccncc3)sc12 [drawing 3548]
 |  |  | 0% | 1 to 25% | 1 to 25% | Cn1cnc(-c2nc(O)c3sc(-c4ccncc4)c(-c4ccccc4)c3n2)c1 [drawing 3549]
